Assay [1] has as its system hypercholesterolemic C57B⅙ mice. Briefly: Serum lipoprotein profile (VLDL-C, HDL-C) by FPLC in C57B⅙ mice on cocoa butter diet. The assay is classed as in vivo. Conditions: for HDL-C / VLDL-C: C57B1/6, cocoa butter diet. On the procedure: Three- to four-week old C57B⅙ male mice (Taconic, Germantown, N.Y., USA) were kept in micro-isolator cages on a 12-hour day/night cycle and fed the Paigen's cocoa butter diet (15.8% fat, 1.25% cholesterol, and 0.5% sodium cholate) (Harlan Teklad, Madison, Wis., USA) for two weeks prior to initiation of lipid lowering therapy. Paigen's diet is described in Nishina et.al., 1993, J. Lipid Res. 34: 1413-1422.
Animals were treated with test compounds by intraperitoneal injection daily for 7 days. A range of doses was administered. Control animals received vehicle alone. The effect of quinazoline derivatives on total cholesterol, LDL, HDL, liver enzymes, and glucose was analyzed. The mice tissues were also examined histologically.
Serum cholesterol profiles were examined by Fast Protein Liquid Chromatography (FPLC) using 100 μl of serum per run. The serum was passed over two Superose™ 6 HR 10/30 connected in tandem equilibrated in phosphate buffered saline (PBS), using the FPLC system from Pharmacia Biotech (Piscataway, N.J., USA) consisting of a controller LCC-501 plus connected to a UV detector (UV-MII), two P500 pumps, and a Frac-100 fraction collector. The FPLC was remotely controlled and operated by the FPLC director program operated on an IBM computer. The system was operated at a flow rate of 0.5 ml/minute and fractions were collected at 0.5 ml/fraction. Cholesterol concentration of each fraction was determined as described above and plotted against the fraction numbers to obtain the serum cholesterol profile.
To determine the serum concentrations of LDL/β-VLDL and HDL, the sums of the LDL/β-VLDL peak (fractions 29-35) and the HDL peak (fractions 53-63) were divided by 0.1. To obtain the IC50 and the minimum β-VLDL and HDL concentrations, the concentrations of β-VLDL and HDL were plotted against the dosage. Best fitted exponential decay curves were obtained using the equation: Concentration of HDL or LDL/β-VLDL=Aexp(−BX)+E, where A+E equals the concentration of HDL or LDL/β-VLDL at the dosage of 0 μg/day and E equals the mathematical minimum concentration of HDL or β-VLDL, and B equals 0.69/IC50. Best fitted curves were obtained using the Graphpad Inplot program, Graphpad Software, San Diego, Calif., USA.
As shown by their serum lipoprotein profiles (FIG. 1), hypercholesterolemic C57B⅙ mice preferentially accumulated cholesterol rich VLDL (171±19 mg/dL, n=4 versus 7±4 mg/dL, n=3, p=0.0008) but no changes in HDL cholesterol levels (90±9 mg/dL, n=4 versus 86±13 mg/dL, n=3, p=0.8) (Table 2). […] In WHI-P164 treated mice, serum VLDL-C decreased immediately from 171±19 mg/dL (n=4), to 99±13 mg/dL (n=4) at the 1.6 mg/kg/day dose level (P=0.02) and further decreased to 78±15 mg/dL (n=4) at the 16 mg/kg/day dose level (p=0.1) (Table 1). […] Thus, WHI-P164 was only able to reduce VLDL-C by […].

Assay [2] deals with C57B⅙ mice. Briefly: Postprandial triglyceride accumulation after 36 hour fast. Conditions: 40 mg/kg/day for 7 days. The assay is classed as in vivo. On the procedure: FIG. 5 is a graph showing inhibition of postprandial triglyceride accumulation by WHI-P164 treatment. C57B⅙ mice were treated with WHI-P164 at 40 mg/kg/day for 7 days, and fasted 36 hours with continuing treatment. […].
C57B⅙ and apoE-deficient mice were treated with intraperitoneal injections of 50 μl vehicle or 40 mg/kg WHI-P164 in 50 μl vehicle for 7 consecutive days, followed by a 36 hour fast to shut down intestinal chylomicron synthesis. […] Blood samples were taken at 0 and 4 hours after Triton WR1339 injection and plasma TG levels were measured enzymatically using a commercially available enzymatic kit (Sigma Chemical Co.). Alternatively, food was returned to the mice after a 36 hour fast and blood samples were collected at 0, 1, 3, 6, and 9 hours after returning the food. Accumulation of chylomicron-TG was determined as accumulation of plasma TG.
Inhibition reached statistical significance at 6 hours in vehicle treated mice having a plasma TG level of 272±25 mg/dL, n=5, as compared to a plasma TG level of 155±32 mg/dL, n=5, p=0.004 in WHI-P164 treated mice.

This is an account of results in patent publication US6410545B1, “Lipid lowering quinazoline dietary supplement composition” (Parker Hughes Institute, priority 1998, dated 2002).

The structures appear in SMILES notation. Entries after “also recorded” stand apart in the source; their conditions may differ.

With `COc1cc2ncnc(C(=O)c3cccc(Br)c3)c2cc1OC` [WHI-P164, 4-(3′-bromobenzoyl)-6,7-dimethoxyquinazoline], the HDL-C in assay [1] (dose 1.6 mg/kg) was found to be 93 ± 8 mg/dL; in assay [1] (dose 4.0 mg/kg), 86 ± 5 mg/dL; in assay [1] (dose 8.0 mg/kg), 81 ± 9 mg/dL; in assay [1] (dose 16.0 mg/kg), 74 ± 10 mg/dL. The VLDL-C in assay [1] (dose 1.6 mg/kg/day) turned out to be 99 ± 13 mg/dL; in assay [1] (dose 4.0 mg/kg), 106 ± 15 mg/dL; in assay [1] (dose 8.0 mg/kg) it was 101 ± 7 mg/dL; in assay [1] (dose 16 mg/kg/day) it was 78 ± 15 mg/dL. The “Effect on serum HDL-C levels” value in assay [1] (C57B⅙ mice, cocoa butter diet) was “did not significantly affect”. For the same compound, the “Calculated effective dose (ED50) for VLDL-C lowering” value in assay [1] (C57B⅙ mice, cocoa butter diet, fitted exponential decay curve) is given as 0.4 mg/kg/day. In addition, in assay [1] (C57B⅙ mice, cocoa butter diet, mathematical minimum of fitted curve), the “Minimum serum VLDL-C level” value is 94 ± 9 mg/dL. Moreover, in assay [1] (C57B⅙ mice, cocoa butter diet, maximal reduction), the “Reduction of VLDL-C” value was determined as 45%. In addition, the “Reduction of LDL-C” value in assay [1] (hypercholesterolemic C57B⅙ mice on a high calorie diet) stood at 45%. The “Plasma TG level” value in assay [2] (6 hours after returning food to 36 hours fasted mice) stood at 155 ± 32 mg/dL. In addition, the Postprandial triglyceride accumulation entry in assay [2] (C57B⅙ mice, fasted 36 hours, versus vehicle, 40 mg/kg/day) is recorded as “much reduced postprandial triglyceride accumulation; also recorded: Postprandial accumulation was inhibited”.
